For this assay, the target named is T1, BACE1 (Homo sapiens, UniProt P56817).
T1 construct: endogenous in cells; host or cells: HEK293 APP cells
In words: Cellular Aβ-lowering assay (Abeta 40 AlphaLISA). The format is cell-based. The settings on record: HEK293 APP cells; 18-20 hrs incubation; Aβ 40 in culture supernatants by AlphaLISA; read-out: BACE1 cell act. Aβ40 IC50. Here is the method:
Cellular Aβ-lowering assay:
The Abeta 40 AlphaLISA Assay can be used. The HEK293 APP cells were seeded in 96 well Microtiter plates in cell culture medium (Iscove's, plus 10% (v/v) fetal bovine serum, penicillin/streptomycin) to about 80% confluency and the compounds were added at a 3× concentration in ⅓ volume of culture medium (final DMSO concentration was kept at 1% v/v). After 18-20 hrs incubation at 37° C. and 5% CO2 in a humidified incubator, the culture supernatants were harvested for the determination of Aβ 40 concentrations using Perkin-Elmer Human Amyloid beta 1-40 (high specificity) Kit (Cat#AL275C).
In a Perkin-Elmer White Optiplate-384 (Cat#6007290), 2 ul culture supernatants were combined with 2 μl of a 10× AlphaLISA Anti-hAβAcceptor beads+Biotinylated Antibody Anti-Aβ1-40 Mix (50 μg/mL/5 nM). After 1 hour room temperature incubation, 16 μl of a 1.25× preparation of Streptavidin (SA) Donor beads (25 μg/mL) were added and incubated for 30 minutes in the Dark. Light Emission at 615 nm was then recorded using EnVision-Alpha Reader. Levels of Aβ 40 in the culture supernatants were calculated as percentage of maximum signal (cells treated with 1% DMSO without inhibitor). The IC50 values were calculated using the Excel XLfit software.
Background: Bead proximity is the source of the signal in Alpha formats.

SMILES strings stand for the structures. Where a name gives a salt, the structure may show the parent alone. A value given as a limit tells only on which side of the number the result lay.

T1 sequence (P56817 46-501): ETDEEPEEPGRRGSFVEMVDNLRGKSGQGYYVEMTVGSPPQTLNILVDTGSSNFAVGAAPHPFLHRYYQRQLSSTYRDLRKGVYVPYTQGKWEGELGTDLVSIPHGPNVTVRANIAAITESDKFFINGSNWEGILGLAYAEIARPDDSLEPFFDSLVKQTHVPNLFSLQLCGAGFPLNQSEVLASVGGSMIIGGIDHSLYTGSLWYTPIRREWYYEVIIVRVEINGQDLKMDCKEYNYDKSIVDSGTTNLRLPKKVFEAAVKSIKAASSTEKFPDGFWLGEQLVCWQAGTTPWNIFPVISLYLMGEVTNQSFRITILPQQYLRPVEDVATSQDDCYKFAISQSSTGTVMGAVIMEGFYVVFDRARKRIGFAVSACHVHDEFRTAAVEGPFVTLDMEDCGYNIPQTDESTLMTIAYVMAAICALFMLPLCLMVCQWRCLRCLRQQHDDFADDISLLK

As a reminder, the IC50 is the concentration that inhibits the measured activity by half. `C[C@@]1(c2cc(-c3cccc(C(F)(F)F)c3)cs2)C[C@@H](C(F)(F)F)OC(N)=N1` [Example 28, (4S,6S)-4-Methyl-6-(trifluoromethyl)-4-(4-(3-(trifluoromethyl)phenyl)thiophen-2-yl)-5,6-dihydro-4H-1,3-oxazin-2-amine]: the IC50 was determined as 330 nM.
In the case of `CC#Cc1cncc(-c2csc([C@]3(C)C[C@@H](C(F)(F)F)OC(N)=N3)c2)c1` [Example 29, (4S,6S)-4-Methyl-4-(4-(5-(prop-1-ynyl)pyridin-3-yl)thiophen-2-yl)-6-(trifluoromethyl)-5,6-dihydro-4H-1,3-oxazin-2-amine Hydrochloride] it was 310 nM; in that of `CC#Cc1cncc(-c2cc(Cl)c([C@]3(C)C[C@@H](C(F)(F)F)OC(N)=N3)s2)c1` [Example 30, (4S,6S)-4-(3-Chloro-5-(5-(prop-1-ynyl)pyridin-3-yl)thiophen-2-yl)-4-methyl-6-(trifluoromethyl)-5,6-dihydro-4H-1,3-oxazin-2-amine], 620 nM; in that of `C[C@@]1(c2sc(-c3cncc(C#N)c3)cc2Cl)C[C@@H](C(F)(F)F)OC(N)=N1` [Example 31, 5-(5-((4S,6S)-2-Amino-4-methyl-6-(trifluoromethyl)-5,6-dihydro-4H-1,3-oxazin-4-yl)-4-chlorothiophen-2-yl)nicotinonitrile], 340 nM.
For `C[C@@]1(c2sc(-c3cncc(Cl)c3)cc2Cl)C[C@@H](C(F)(F)F)OC(N)=N1` [Example 32, (4S,6S)-4-(3-Chloro-5-(5-chloropyridin-3-yl)thiophen-2-yl)-4-methyl-6-(trifluoromethyl)-5,6-dihydro-4H-1,3-oxazin-2-amine], the IC50 came out at 740 nM.
For the compound `C[C@@]1(c2sc(-c3cccc(C#N)c3)cc2Cl)C[C@@H](C(F)(F)F)OC(N)=N1` [Example 33, 3-(5-((4S,6S)-2-Amino-4-methyl-6-(trifluoromethyl)-5,6-dihydro-4H-1,3-oxazin-4-yl)-4-chlorothiophen-2-yl)benzonitrile], the half-maximal inhibitory concentration (IC50) was 510 nM.
To `C[C@@]1(c2cc(NC(=O)c3ccc(Cl)cn3)cs2)C[C@@H](C(F)(F)F)OC(N)=N1` [Example 34, N-(5-((4S,6S)-2-amino-4-methyl-6-(trifluoromethyl)-5,6-dihydro-4H-1,3-oxazin-4-yl)thiophen-3-yl)-5-chloropicolinamide] belongs 330 nM; to `C[C@@]1(c2cc(NC(=O)c3ccc(C#N)cn3)cs2)C[C@@H](C(F)(F)F)OC(N)=N1` [Example 35, N-(5-((4S,6S)-2-Amino-4-methyl-6-(trifluoromethyl)-5,6-dihydro-4H-1,3-oxazin-4-yl)thiophen-3-yl)-5-cyanopicolinamide], 88 nM; to `C[C@@]1(c2cc(NC3CCc4cc(C#N)cnc43)ccc2F)C[C@@H](C(F)(F)F)OC(N)=N1` (stereo partly drawn) [Example 36, 7-(3-((4S,6S)-2-Amino-4-methyl-6-(trifluoromethyl)-5,6-dihydro-4H-1,3-oxazin-4-yl)-4-fluorophenylamino)-6,7-dihydro-5H-cyclopenta[b]pyridine-3-carbonitrile], 33 nM.
To `C[C@@]1(c2cccc(NC(=O)c3ccc(C#N)cn3)c2F)C[C@@H](C(F)(F)F)OC(N)=N1` [Example 37, N-(3-((4S,6S)-2-Amino-4-methyl-6-(trifluoromethyl)-5,6-dihydro-4H-1,3-oxazin-4-yl)-2-fluorophenyl)-5-cyanopicolinamide] belongs 140 nM.
Turning to `C[C@@]1(c2c(F)ccc(NC(=O)c3ccc(C#N)cn3)c2F)C[C@@H](C(F)(F)F)OC(N)=N1` [Example 38, N-(3-((4S,6S)-2-amino-4-methyl-6-(trifluoromethyl)-5,6-dihydro-4H-1,3-oxazin-4-yl)-2,4-difluorophenyl)-5-cyanopicolinamide], the IC50 was found to be 13 nM.
With `C[C@@]1(c2cc(-c3nc4ccc(Cl)cc4o3)ccc2F)C[C@@H](C(F)(F)F)OC(N)=N1` [Example 39, (4S,6S)-4-(5-(6-Chlorobenzo[d]oxazol-2-yl)-2-fluorophenyl)-4-methyl-6-(trifluoromethyl)-5,6-dihydro-4H-1,3-oxazin-2-amine], the IC50 came out at 530 nM.
In the case of `C[C@@]1(c2cc(-c3nnc(-c4ccc(Cl)cc4)o3)ccc2F)C[C@@H](C(F)(F)F)OC(N)=N1` [Example 40, (4S,6S)-4-(5-(5-(4-Chlorophenyl)-1,3,4-oxadiazol-2-yl)-2-fluorophenyl)-4-methyl-6-(trifluoromethyl)-5,6-dihydro-4H-1,3-oxazin-2-amine] it was greater than 40000 nM; in that of `C[C@@]1(c2cc(-c3ccccc3)ccc2F)C[C@@H](C(F)(F)F)OC(N)=N1` [Example 41, (4S,6S)-4-(4-Fluorobiphenyl-3-yl)-4-methyl-6-(trifluoromethyl)-5,6-dihydro-4H-1,3-oxazin-2-amine], 6420 nM.
To `C[C@@]1(c2cc(-c3cncnc3)cs2)C[C@@H](C(F)(F)F)OC(N)=N1` [Example 42, (4S,6S)-4-Methyl-4-(4-(pyrimidin-5-yl)thiophen-2-yl)-6-(trifluoromethyl)-5,6-dihydro-4H-1,3-oxazin-2-amine] belongs 2520 nM; to `C[C@@]1(c2cc(CCc3ccc(C#N)cn3)ccc2F)C[C@@H](C(F)(F)F)OC(N)=N1` [Example 44, 6-(3-((4S,6S)-2-Amino-4-methyl-6-(trifluoromethyl)-5,6-dihydro-4H-1,3-oxazin-4-yl)-4-fluorophenethyl)nicotinonitrile], 2020 nM; to `NC1=N[C@](CF)(c2cc(-c3nc4ccc(Cl)cc4o3)ccc2F)C[C@@H](C(F)(F)F)O1` [Example 45, (4S,6S)-4-(5-(6-Chlorobenzo[d]oxazol-2-yl)-2-fluorophenyl)-4-(fluoromethyl)-6-(trifluoromethyl)-5,6-dihydro-4H-1,3-oxazin-2-amine], 1640 nM.
In the case of `C[C@@]1(c2cc(C#Cc3ccc(C#N)nc3)ccc2F)C[C@@H](C(F)(F)F)OC(N)=N1` [Example 46, 5-((3-((4S,6S)-2-amino-4-methyl-6-(trifluoromethyl)-5,6-dihydro-4H-1,3-oxazin-4-yl)-4-fluorophenyl)ethynyl)picolinonitrile], the IC50 is 450 nM.
As for `Cc1cc(-c2cncc(-c3ccc(F)c([C@]4(CF)C[C@@H](C(F)(F)F)OC(N)=N4)c3)c2)n[nH]1` [Example 47, (4S,6S)-4-(2-fluoro-5-(5-(5-methyl-1H-pyrazol-3-yl)pyridin-3-yl)phenyl)-4-(fluoromethyl)-6-(trifluoromethyl)-5,6-dihydro-4H-1,3-oxazin-2-amine], the IC50 was 10600 nM.
In the case of `C[C@@]1(c2cc(C#Cc3cncnc3)ccc2F)C[C@@H](C(F)(F)F)OC(N)=N1` [Example 50, (4S,6S)-4-(2-fluoro-5-(pyrimidin-5-ylethynyl)phenyl)-4-methyl-6-(trifluoromethyl)-5,6-dihydro-4H-1,3-oxazin-2-amine], the IC50 turned out to be 2660 nM.
`COc1ncc(C#Cc2ccc(F)c([C@]3(C)C[C@@H](C(F)(F)F)OC(N)=N3)c2)cn1` [Example 53, (4S,6S)-4-[2-fluoro-5-[2-(2-methoxypyrimidin-5-yl)ethynyl]phenyl]-4-methyl-6-(trifluoromethyl)-5,6-dihydro-1,3-oxazin-2-amine]: the 50% inhibitory concentration (IC50) stood at 5650 nM.
In the case of `C[C@@]1(c2cc(C#Cc3cnc(C#N)nc3)ccc2F)C[C@@H](C(F)(F)F)OC(N)=N1` [Example 54, 5-[2-[3-[(4S,6S)-2-amino-4-methyl-6-(trifluoromethyl)-5,6-dihydro-1,3-oxazin-4-yl]-4-fluorophenyl]ethynyl]pyrimidine-2-carbonitrile] it was 1360 nM.

(Values after patent US20150376172A1, “FLUORO-[1,3]OXAZINES AS BACE1 INHIBITORS” (HOFFMANN-LA ROCHE INC., priority 2013, published 2015).)
